The record followed here is the supplement of paper PMC10307832.

The first experiment relates to LC-2-ad. The experiment in a line: relative viability (nuclei count vs DMSO), 5 days (fraction); higher = more cells survive. Particulars: first compound 8 µM. A digest of the protocol: (§1)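 Relative viability equals treated-well nuclei counts divided by vehicle-well nuclei counts. Counts came from 4× images of lung cancer cell lines grown in 1536-well plates for 5 days after pin-tool dosing on the day after seeding. Dosing used one drug alone or a fixed anchor-drug dose plus five library-drug doses (not always all listed) in √10 steps, and values are medians of duplicate plates.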
In the case of `CCCCCCCCCCCC1=C(O)C(=O)C=C(O)C1=O` [Embelin] + CCNC(=O)c1noc(-c2cc(C(C)C)c(O)cc2O)c1-c1ccc(CN2CCOCC2)cc1 [Luminespib] (partner 0.01 µM), the relative viability worked out at 0.806.
`CCCCCCCCCCCC1=C(O)C(=O)C=C(O)C1=O` [Embelin] + Cc1nc(Nc2ncc(C(=O)Nc3c(C)cccc3Cl)s2)cc(N2CCN(CCO)CC2)n1 [Dasatinib] (partner 0.075 µM): the relative viability is 0.412.
In turn, `CCCCCCCCCCCC1=C(O)C(=O)C=C(O)C1=O` [Embelin] + CC(=O)c1c(C)c2cnc(Nc3ccc(N4CCNCC4)cn3)nc2n(C2CCCC2)c1=O [Palbociclib] (partner 0.5 µM) showed a relative viability of 0.516.
The same measure, in the same setting: for `CCCCCCCCCCCC1=C(O)C(=O)C=C(O)C1=O` [Embelin] + COc1cccc2cc(-c3nc([C@H]4CC[C@H](C(=O)O)CC4)n4ncnc(N)c34)[nH]c12 [OSI-027] (partner 0.5 µM) the value was 0.516; for `CCCCCCCCCCCC1=C(O)C(=O)C=C(O)C1=O` [Embelin] + Nc1nc2[nH]cc(CCc3ccc(C(=O)N[C@@H](CCC(=O)O)C(=O)O)cc3)c2c(=O)[nH]1 [Pemetrexed] (partner 0.2 µM), 0.288.

Another experiment deals with NCI-H23. Described as above. The following applies: first compound 0.08 µM. In a few lines:
as §1
Consider `CCCCCCCCCCCC1=C(O)C(=O)C=C(O)C1=O` [Embelin] + CCNC(=O)c1noc(-c2cc(C(C)C)c(O)cc2O)c1-c1ccc(CN2CCOCC2)cc1 [Luminespib] (partner 0.01 µM), for which the relative viability came out at 0.228.
`CCCCCCCCCCCC1=C(O)C(=O)C=C(O)C1=O` [Embelin] + Cc1nc(Nc2ncc(C(=O)Nc3c(C)cccc3Cl)s2)cc(N2CCN(CCO)CC2)n1 [Dasatinib] (partner 0.075 µM) showed a relative viability of 0.82.
Consider `CCCCCCCCCCCC1=C(O)C(=O)C=C(O)C1=O` [Embelin] + CC(=O)c1c(C)c2cnc(Nc3ccc(N4CCNCC4)cn3)nc2n(C2CCCC2)c1=O [Palbociclib] (partner 0.5 µM), for which the relative viability came out at 0.516.
Same read-out and setting: for `CCCCCCCCCCCC1=C(O)C(=O)C=C(O)C1=O` [Embelin] + COc1cccc2cc(-c3nc([C@H]4CC[C@H](C(=O)O)CC4)n4ncnc(N)c34)[nH]c12 [OSI-027] (partner 0.5 µM) the value was 0.695; for `CCCCCCCCCCCC1=C(O)C(=O)C=C(O)C1=O` [Embelin] + Nc1nc2[nH]cc(CCc3ccc(C(=O)N[C@@H](CCC(=O)O)C(=O)O)cc3)c2c(=O)[nH]1 [Pemetrexed] (partner 0.2 µM), 0.786.

The same experiment, now with this note: first compound 0.8 µM.
`CCCCCCCCCCCC1=C(O)C(=O)C=C(O)C1=O` [Embelin] + CCNC(=O)c1noc(-c2cc(C(C)C)c(O)cc2O)c1-c1ccc(CN2CCOCC2)cc1 [Luminespib] (partner 0.01 µM) returned a relative viability of 0.212.
Still for that read-out and setting: for `CCCCCCCCCCCC1=C(O)C(=O)C=C(O)C1=O` [Embelin] + Cc1nc(Nc2ncc(C(=O)Nc3c(C)cccc3Cl)s2)cc(N2CCN(CCO)CC2)n1 [Dasatinib] (partner 0.075 µM) the value was 0.755; for `CCCCCCCCCCCC1=C(O)C(=O)C=C(O)C1=O` [Embelin] + CC(=O)c1c(C)c2cnc(Nc3ccc(N4CCNCC4)cn3)nc2n(C2CCCC2)c1=O [Palbociclib] (partner 0.5 µM), 0.543.
The same measure, in the same setting: for `CCCCCCCCCCCC1=C(O)C(=O)C=C(O)C1=O` [Embelin] + COc1cccc2cc(-c3nc([C@H]4CC[C@H](C(=O)O)CC4)n4ncnc(N)c34)[nH]c12 [OSI-027] (partner 0.5 µM) the value was 0.672; for `CCCCCCCCCCCC1=C(O)C(=O)C=C(O)C1=O` [Embelin] + Nc1nc2[nH]cc(CCc3ccc(C(=O)N[C@@H](CCC(=O)O)C(=O)O)cc3)c2c(=O)[nH]1 [Pemetrexed] (partner 0.2 µM), 0.675.

The same experiment, now with this note: first compound 2.53 µM.
With `CCCCCCCCCCCC1=C(O)C(=O)C=C(O)C1=O` [Embelin] + CCNC(=O)c1noc(-c2cc(C(C)C)c(O)cc2O)c1-c1ccc(CN2CCOCC2)cc1 [Luminespib] (partner 0.01 µM), the relative viability came out at 0.221.
The same measure, in the same setting: for `CCCCCCCCCCCC1=C(O)C(=O)C=C(O)C1=O` [Embelin] + Cc1nc(Nc2ncc(C(=O)Nc3c(C)cccc3Cl)s2)cc(N2CCN(CCO)CC2)n1 [Dasatinib] (partner 0.075 µM) the value was 1.08.
Still for that read-out and setting: for `CCCCCCCCCCCC1=C(O)C(=O)C=C(O)C1=O` [Embelin] + CC(=O)c1c(C)c2cnc(Nc3ccc(N4CCNCC4)cn3)nc2n(C2CCCC2)c1=O [Palbociclib] (partner 0.5 µM) the value was 0.533; for `CCCCCCCCCCCC1=C(O)C(=O)C=C(O)C1=O` [Embelin] + COc1cccc2cc(-c3nc([C@H]4CC[C@H](C(=O)O)CC4)n4ncnc(N)c34)[nH]c12 [OSI-027] (partner 0.5 µM), 0.582.
Same read-out and setting: for `CCCCCCCCCCCC1=C(O)C(=O)C=C(O)C1=O` [Embelin] + Nc1nc2[nH]cc(CCc3ccc(C(=O)N[C@@H](CCC(=O)O)C(=O)O)cc3)c2c(=O)[nH]1 [Pemetrexed] (partner 0.2 µM) the value was 0.589.

The same experiment, now with this note: first compound 8 µM.
`CCCCCCCCCCCC1=C(O)C(=O)C=C(O)C1=O` [Embelin] + CCNC(=O)c1noc(-c2cc(C(C)C)c(O)cc2O)c1-c1ccc(CN2CCOCC2)cc1 [Luminespib] (partner 0.01 µM): the relative viability is 0.232.
Compound `CCCCCCCCCCCC1=C(O)C(=O)C=C(O)C1=O` [Embelin] + Cc1nc(Nc2ncc(C(=O)Nc3c(C)cccc3Cl)s2)cc(N2CCN(CCO)CC2)n1 [Dasatinib] (partner 0.075 µM) yielded a relative viability of 0.612.
Same read-out and setting: for `CCCCCCCCCCCC1=C(O)C(=O)C=C(O)C1=O` [Embelin] + CC(=O)c1c(C)c2cnc(Nc3ccc(N4CCNCC4)cn3)nc2n(C2CCCC2)c1=O [Palbociclib] (partner 0.5 µM) the value was 0.594.
In the case of `CCCCCCCCCCCC1=C(O)C(=O)C=C(O)C1=O` [Embelin] + COc1cccc2cc(-c3nc([C@H]4CC[C@H](C(=O)O)CC4)n4ncnc(N)c34)[nH]c12 [OSI-027] (partner 0.5 µM), the relative viability amounted to 0.562.
As to `CCCCCCCCCCCC1=C(O)C(=O)C=C(O)C1=O` [Embelin] + Nc1nc2[nH]cc(CCc3ccc(C(=O)N[C@@H](CCC(=O)O)C(=O)O)cc3)c2c(=O)[nH]1 [Pemetrexed] (partner 0.2 µM), the relative viability came to 0.665.

The next experiment relates to NCI-H322M. The description is as above. The following applies: first compound 0.08 µM. A digest of the protocol:
as §1
The compound `CCCCCCCCCCCC1=C(O)C(=O)C=C(O)C1=O` [Embelin] + CCNC(=O)c1noc(-c2cc(C(C)C)c(O)cc2O)c1-c1ccc(CN2CCOCC2)cc1 [Luminespib] (partner 0.01 µM) gave a relative viability of 0.951.
As for `CCCCCCCCCCCC1=C(O)C(=O)C=C(O)C1=O` [Embelin] + Cc1nc(Nc2ncc(C(=O)Nc3c(C)cccc3Cl)s2)cc(N2CCN(CCO)CC2)n1 [Dasatinib] (partner 0.075 µM), the relative viability was found to be 0.26.
The same measure, in the same setting: for `CCCCCCCCCCCC1=C(O)C(=O)C=C(O)C1=O` [Embelin] + CC(=O)c1c(C)c2cnc(Nc3ccc(N4CCNCC4)cn3)nc2n(C2CCCC2)c1=O [Palbociclib] (partner 0.5 µM) the value was 0.456; for `CCCCCCCCCCCC1=C(O)C(=O)C=C(O)C1=O` [Embelin] + COc1cccc2cc(-c3nc([C@H]4CC[C@H](C(=O)O)CC4)n4ncnc(N)c34)[nH]c12 [OSI-027] (partner 0.5 µM), 0.523.
The same measure, in the same setting: for `CCCCCCCCCCCC1=C(O)C(=O)C=C(O)C1=O` [Embelin] + Nc1nc2[nH]cc(CCc3ccc(C(=O)N[C@@H](CCC(=O)O)C(=O)O)cc3)c2c(=O)[nH]1 [Pemetrexed] (partner 0.2 µM) the value was 0.598.

The same experiment, now with this note: first compound 0.8 µM.
Consider `CCCCCCCCCCCC1=C(O)C(=O)C=C(O)C1=O` [Embelin] + CCNC(=O)c1noc(-c2cc(C(C)C)c(O)cc2O)c1-c1ccc(CN2CCOCC2)cc1 [Luminespib] (partner 0.01 µM), for which the relative viability worked out at 1.04.
